Laboratory results reported in patent US12540131B2 (Merck Sharp & Dohme LLC, priority 2019, dated 2026).

Biological target: GST tagged truncated human mutant G2019S LRRK2 (Homo sapiens (Human), UniProt Q5S007, G2019S)
Experiment: LRRK2 Km ATP LanthaScreen Assay
Assay type: biochemical
Conditions: G2019S LRRK2, 134 μM ATP (Km ATP), mean values; for IC50: read-out: LRRK2 pIC50 (converted)
In short: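 Enzyme (GST-tagged, truncated) was preincubated with compound for 15 min at RT in 50 mM Tris pH 8.5, 10 mM MgCl2, 0.01% Brij-35, 1 mM EGTA, 2 mM DTT and 0.05 mM orthovanadate. Fluorescein-LRRKtide and 134 μM ATP (Km) were then added for 90 min. EDTA and Tb-anti-pERM antibody stopped the reaction; the TR-FRET 520/495 ratio gave 4-parameter IC50s, reported as mean pIC50.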

Sequence of GST tagged truncated human mutant G2019S LRRK2 (Q5S007 970-2527 G2019S): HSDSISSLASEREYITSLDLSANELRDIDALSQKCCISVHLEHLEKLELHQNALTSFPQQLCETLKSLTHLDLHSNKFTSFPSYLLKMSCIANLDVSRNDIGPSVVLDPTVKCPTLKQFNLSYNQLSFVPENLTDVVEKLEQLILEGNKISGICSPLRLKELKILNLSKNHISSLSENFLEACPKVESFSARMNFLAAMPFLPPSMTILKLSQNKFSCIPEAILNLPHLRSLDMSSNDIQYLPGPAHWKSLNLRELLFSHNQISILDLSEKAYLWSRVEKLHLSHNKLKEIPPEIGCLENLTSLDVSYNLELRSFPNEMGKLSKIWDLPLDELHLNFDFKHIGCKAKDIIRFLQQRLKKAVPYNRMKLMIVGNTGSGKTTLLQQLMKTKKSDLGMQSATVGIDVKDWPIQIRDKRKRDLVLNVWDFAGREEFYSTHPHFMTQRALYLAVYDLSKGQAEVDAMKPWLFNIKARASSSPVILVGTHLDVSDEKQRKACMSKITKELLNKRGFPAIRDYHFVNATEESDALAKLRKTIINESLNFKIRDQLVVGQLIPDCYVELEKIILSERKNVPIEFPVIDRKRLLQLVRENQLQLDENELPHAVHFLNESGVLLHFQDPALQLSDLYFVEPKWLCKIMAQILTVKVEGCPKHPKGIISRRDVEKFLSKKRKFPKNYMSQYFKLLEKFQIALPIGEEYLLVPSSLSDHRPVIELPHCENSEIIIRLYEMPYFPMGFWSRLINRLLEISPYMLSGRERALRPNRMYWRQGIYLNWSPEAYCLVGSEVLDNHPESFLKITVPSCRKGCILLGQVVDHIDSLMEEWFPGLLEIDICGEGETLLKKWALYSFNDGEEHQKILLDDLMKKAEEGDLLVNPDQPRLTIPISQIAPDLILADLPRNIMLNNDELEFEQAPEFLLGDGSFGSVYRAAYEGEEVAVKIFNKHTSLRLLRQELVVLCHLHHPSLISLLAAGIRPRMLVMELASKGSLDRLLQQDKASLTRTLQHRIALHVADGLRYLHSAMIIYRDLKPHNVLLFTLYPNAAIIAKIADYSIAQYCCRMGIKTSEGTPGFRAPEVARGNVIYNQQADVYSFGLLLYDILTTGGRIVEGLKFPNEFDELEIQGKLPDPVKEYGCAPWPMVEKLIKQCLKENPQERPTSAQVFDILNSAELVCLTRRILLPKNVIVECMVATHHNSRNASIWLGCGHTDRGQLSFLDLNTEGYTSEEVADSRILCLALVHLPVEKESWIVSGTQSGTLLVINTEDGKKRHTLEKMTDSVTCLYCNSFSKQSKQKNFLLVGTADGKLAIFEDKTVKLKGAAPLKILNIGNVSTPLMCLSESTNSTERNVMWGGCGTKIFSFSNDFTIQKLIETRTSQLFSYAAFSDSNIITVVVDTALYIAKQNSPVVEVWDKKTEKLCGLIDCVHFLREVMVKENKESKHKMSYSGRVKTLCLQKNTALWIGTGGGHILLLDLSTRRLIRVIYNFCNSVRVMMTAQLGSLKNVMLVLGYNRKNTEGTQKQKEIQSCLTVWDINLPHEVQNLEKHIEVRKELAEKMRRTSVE

| Compound | IC50 [nM] | LRRK2 pIC50 |
| --- | --- | --- |
| Cc1c(Nc2ncc3cc(Cl)c(C4CCN(C5COC(C)(C)C5)CC4)cc3n2)cnn1C1CC1 (single isomer, unassigned) [Ex-4.174, (R) or (S) 6-chloro-N-(1-cyclopropyl-5-methyl-1H-pyrazol-4-yl)-7-[1-(5,5-dimethyloxolan-3-yl)piperidin-4-yl]quinazolin-2-amine] | < 0.631 |  |
| Cc1c(Nc2ncc3cc(Cl)c([C@H]4CCN(C5COC5)C[C@@H]4F)cc3n2)cnn1C1CC1(F)F (single isomer, unassigned) [Ex-4.175, (R)(3S,4S) or (S)(3S,4S) or (R)(3R,4R) or (S)(3R,4R) 6-chloro-N-[1-(2,2-difluorocyclopropyl)-5-methyl-1H-pyrazol-4-yl]-7-[(3R,4R)-3-fluoro-1-(oxetan-3-yl)piperidin-4-yl]quinazolin-2-amine] |  | 9.10 |
| Cc1c(Nc2ncc3cc(Cl)c([C@H]4CCN(C5COC5)C[C@@H]4F)cc3n2)cnn1C1CC1(F)F (single isomer, unassigned) [Ex-4.176, (R)(3S,4S) or (S)(3S,4S) or (R)(3R,4R) or (S)(3R,4R) 6-chloro-N-[1-(2,2-difluorocyclopropyl)-5-methyl-1H-pyrazol-4-yl]-7-[(3R,4R)-3-fluoro-1-(oxetan-3-yl)piperidin-4-yl]quinazolin-2-amine] |  | 8.73 |
| Cc1c(Nc2ncc3cc(Cl)c([C@@H]4CCN(C5COC5)C[C@H]4F)cc3n2)cnn1C1CC1(F)F (single isomer, unassigned) [Ex-4.177, (R)(3S,4S) or (S)(3S,4S) or (R)(3R,4R) or (S)(3R,4R) 6-chloro-N-[1-(2,2-difluorocyclopropyl)-5-methyl-1H-pyrazol-4-yl]-7-[(3R,4R)-3-fluoro-1-(oxetan-3-yl)piperidin-4-yl]quinazolin-2-amine] |  | 9.16 |
| Cc1c(Nc2ncc3cc(Cl)c([C@@H]4CCN(C5COC5)C[C@H]4F)cc3n2)cnn1C1CC1(F)F (single isomer, unassigned) [Ex-4.178, (R)(3S,4S) or (S)(3S,4S) or (R)(3R,4R) or (S)(3R,4R) 6-chloro-N-[1-(2,2-difluorocyclopropyl)-5-methyl-1H-pyrazol-4-yl]-7-[(3R,4R)-3-fluoro-1-(oxetan-3-yl)piperidin-4-yl]quinazolin-2-amine] |  | 8.58 |
| Cc1c(Nc2ncc3cc(Cl)c(C4CCN(C5COC5)CC4)cc3n2)cnn1C1CC1(F)F (single isomer, unassigned) [Ex-4.179, (R) or (S) 6-chloro-N-[1-(2,2-difluorocyclopropyl)-5-methyl-1H-pyrazol-4-yl]-7-[1-(oxetan-3-yl)piperidin-4-yl]quinazolin-2-amine] | < 0.631 |  |
| Cc1c(Nc2ncc3cc(Cl)c([C@@H]4CCN([C@H]5COC[C@H]5O)C[C@H]4F)cc3n2)cnn1C1CC1(F)F (single isomer, unassigned) [Ex-4.180, (R)(3S,4S)(3S,4S) or (R)(3S,4S)(3R,4R) or (R)(3R,4R)(3S,4S) or (R)(3R,4R)(3R,4R) or (S)(3S,4S)(3S,4S) or (S)(3S,4S)(3R,4R) or (S)(3R,4R)(3S,4S) or (S)(3R,4R)(3R,4R) 4-(4-(6-chloro-2-((1-(2,2-difluorocyclopropyl)-5-methyl-1H-pyrazol-4-yl)amino)quinazolin-7-yl)-3-fluoropiperidin-1-yl)tetrahydrofuran-3-olyl]amino}quinazolin-7-yl)-3-fluoropiperidin-1-yl]oxolan-3-ol] |  | >9.20 |
| Cc1c(Nc2ncc3cc(Cl)c([C@@H]4CCN([C@@H]5COC[C@@H]5O)C[C@H]4F)cc3n2)cnn1C1CC1(F)F (single isomer, unassigned) [Ex-4.181, (R)(3S,4S)(3S,4S) or (R)(3S,4S)(3R,4R) or (R)(3R,4R)(3S,4S) or (R)(3R,4R)(3R,4R) or (S)(3S,4S)(3S,4S) or (S)(3S,4S)(3R,4R) or (S)(3R,4R)(3S,4S) or (S)(3R,4R)(3R,4R) 4-(4-(6-chloro-2-((1-(2,2-difluorocyclopropyl)-5-methyl-1H-pyrazol-4-yl)amino)quinazolin-7-yl)-3-fluoropiperidin-1-yl)tetrahydrofuran-3-olyl]amino}quinazolin-7-yl)-3-fluoropiperidin-1-yl]oxolan-3-ol] |  | >9.20 |
| Cc1c(Nc2ncc3cc(Cl)c(C4CCN([C@@H]5COC[C@@H]5O)CC4)cc3n2)cnn1C1CC1(F)F (single isomer, unassigned) [Ex-4.182, (R)(3S,4S) or (S)(3S,4S) or (R)(3R,4R) or (S)(3R,4R) 4-[4-(6-chloro-2-{[1-(2,2-difluorocyclopropyl)-5-methyl-1H-pyrazol-4-yl]amino}quinazolin-7-yl)piperidin-1-yl]oxolan-3-ol] |  | >9.20 |
| Cc1c(Nc2ncc3cc(Cl)c(C4CCN([C@H]5COC[C@H]5O)CC4)cc3n2)cnn1C1CC1(F)F (single isomer, unassigned) [Ex-4.183, (R)(3S,4S) or (S)(3S,4S) or (R)(3R,4R) or (S)(3R,4R) 4-[4-(6-chloro-2-{[1-(2,2-difluorocyclopropyl)-5-methyl-1H-pyrazol-4-yl]amino}quinazolin-7-yl)piperidin-1-yl]oxolan-3-ol] |  | >9.20 |
| O[C@@H]1COCC1N1CC[C@H](c2cc3nc(Nc4cnn(C5CC5(F)F)c4Cl)ncc3cc2Cl)[C@@H](F)C1 (single isomer, unassigned) [Ex-4.184, (R)(3S,4S)(3S,4S) or (R)(3S,4S)(3R,4R) or (R)(3R,4R)(3S,4S) or (R)(3R,4R)(3R,4R) or (S)(3S,4S)(3S,4S) or (S)(3S,4S)(3R,4R) or (S)(3R,4R)(3S,4S) or (S)(3R,4R)(3R,4R) 4-(6-chloro-2-{[5-chloro-1-(2,2-difluorocyclopropyl)-1H-pyrazol-4-yl]amino}quinazolin-7-yl)-3-fluoropiperidin-1-yl]oxolan-3-ol] |  | >9.20 |
| Cn1ncc(Nc2ncc3cc(Cl)c([C@@H]4CCN([C@H]5COC[C@H]5O)C[C@H]4F)cc3n2)c1Cl (single isomer, unassigned) [Ex-4.185, (3S,4S)(3S,4S) or (3S,4S)(3R,4R) or (3R,4R)(3S,4S) or (3R,4R)(3R,4R) 4-(4-{6-chloro-2-[(5-chloro-1-methyl-1H-pyrazol-4-yl)amino]quinazolin-7-yl}-3-fluoropiperidin-1-yl)oxolan-3-ol] |  | 9.17 |
| Cn1ncc(Nc2ncc3cc(Cl)c([C@@H]4CCN([C@@H]5COC[C@@H]5O)C[C@H]4F)cc3n2)c1Cl (single isomer, unassigned) [Ex-4.186, (3S,4S)(3S,4S) or (3S,4S)(3R,4R) or (3R,4R)(3S,4S) or (3R,4R)(3R,4R) 4-(4-{6-chloro-2-[(5-chloro-1-methyl-1H-pyrazol-4-yl)amino]quinazolin-7-yl}-3-fluoropiperidin-1-yl)oxolan-3-ol] |  | 7.95 |
| Cc1c(Nc2ncc3cc(Cl)c(C4CCN(C(=O)[C@@H](C)O)C4)cc3n2)cnn1C1CC1 (single isomer, unassigned) [Ex-4.187, (2R)(3S) or (2R)(3R) 1-(3-{6-chloro-2-[(1-cyclopropyl-5-methyl-1H-pyrazol-4-yl)amino]quinazolin-7-yl}pyrrolidin-1-yl)-2-hydroxypropan-1-one] |  | 8.54 |
| Cn1ncc(Nc2ncc3cc(Cl)c([C@H]4CCN([C@H]5COC[C@H]5O)C[C@@H]4F)cc3n2)c1Cl (single isomer, unassigned) [Ex-4.188, (3S,4S)(3S,4S) or (3S,4S)(3R,4R) or (3R,4R)(3S,4S) or (3R,4R)(3R,4R) 4-(4-{6-chloro-2-[(5-chloro-1-methyl-1H-pyrazol-4-yl)amino]quinazolin-7-yl}-3-fluoropiperidin-1-yl)oxolan-3-ol] |  | 7.83 |
| Cn1ncc(Nc2ncc3cc(Cl)c([C@H]4CCN([C@@H]5COC[C@@H]5O)C[C@@H]4F)cc3n2)c1Cl (single isomer, unassigned) [Ex-4.189, (3S,4S)(3S,4S) or (3S,4S)(3R,4R) or (3R,4R)(3S,4S) or (3R,4R)(3R,4R) 4-(4-{6-chloro-2-[(5-chloro-1-methyl-1H-pyrazol-4-yl)amino]quinazolin-7-yl}-3-fluoropiperidin-1-yl)oxolan-3-ol] |  | >9.20 |
| Cc1c(Nc2ncc3cc(Cl)c(C4CCN(C(=O)[C@H](C)O)C4)cc3n2)cnn1C1CC1 (single isomer, unassigned) [Ex-4.190, (2S)(3S) or (2S)(3R) 1-(3-{6-chloro-2-[(1-cyclopropyl-5-methyl-1H-pyrazol-4-yl)amino]quinazolin-7-yl}pyrrolidin-1-yl)-2-hydroxypropan-1-one] |  | 8.73 |
| Cc1c(Nc2ncc3cc(Cl)c(C4CCN(CC(O)CC(F)(F)F)CC4)cc3n2)cnn1C1CC1 (single isomer, unassigned) [Ex-4.191, (S) or (R) 1-(4-{6-chloro-2-[(1-cyclopropyl-5-methyl-1H-pyrazol-4-yl)amino]quinazolin-7-yl}piperidin-1-yl)-4,4,4-trifluorobutan-2-ol] | < 0.631 |  |
| Cc1c(Nc2ncc3cc(Cl)c(C4CCN(CC(O)CC(F)(F)F)CC4)cc3n2)cnn1C1CC1 (single isomer, unassigned) [Ex-4.192, (S) or (R) 1-(4-{6-chloro-2-[(1-cyclopropyl-5-methyl-1H-pyrazol-4-yl)amino]quinazolin-7-yl}piperidin-1-yl)-4,4,4-trifluorobutan-2-ol] | 1.74 |  |
| Cc1c(Nc2ncc3cc(Cl)c(C4CCN(CC(O)Cc5ccccc5)CC4)cc3n2)cnn1C1CC1 (single isomer, unassigned) [Ex-4.218, (S) or (R) 1-(4-{6-chloro-2-[(1-cyclopropyl-5-methyl-1H-pyrazol-4-yl)amino]quinazolin-7-yl}piperidin-1-yl)-3-phenylpropan-2-ol] | 13.8 |  |
